Test results: publication PMC7509217 (Cellular and Molecular Gastroenterology and Hepatology, 2020)

Target: rat ACC2 (acetyl-CoA carboxylase 2) (Rattus norvegicus, UniProt O70151)
Experiment: citrate-activated ACC enzyme, […]bicarbonate incorporation into malonyl-CoA
Assay type: biochemical

Chain of rat ACC2 (acetyl-CoA carboxylase 2) (O70151 1-2456): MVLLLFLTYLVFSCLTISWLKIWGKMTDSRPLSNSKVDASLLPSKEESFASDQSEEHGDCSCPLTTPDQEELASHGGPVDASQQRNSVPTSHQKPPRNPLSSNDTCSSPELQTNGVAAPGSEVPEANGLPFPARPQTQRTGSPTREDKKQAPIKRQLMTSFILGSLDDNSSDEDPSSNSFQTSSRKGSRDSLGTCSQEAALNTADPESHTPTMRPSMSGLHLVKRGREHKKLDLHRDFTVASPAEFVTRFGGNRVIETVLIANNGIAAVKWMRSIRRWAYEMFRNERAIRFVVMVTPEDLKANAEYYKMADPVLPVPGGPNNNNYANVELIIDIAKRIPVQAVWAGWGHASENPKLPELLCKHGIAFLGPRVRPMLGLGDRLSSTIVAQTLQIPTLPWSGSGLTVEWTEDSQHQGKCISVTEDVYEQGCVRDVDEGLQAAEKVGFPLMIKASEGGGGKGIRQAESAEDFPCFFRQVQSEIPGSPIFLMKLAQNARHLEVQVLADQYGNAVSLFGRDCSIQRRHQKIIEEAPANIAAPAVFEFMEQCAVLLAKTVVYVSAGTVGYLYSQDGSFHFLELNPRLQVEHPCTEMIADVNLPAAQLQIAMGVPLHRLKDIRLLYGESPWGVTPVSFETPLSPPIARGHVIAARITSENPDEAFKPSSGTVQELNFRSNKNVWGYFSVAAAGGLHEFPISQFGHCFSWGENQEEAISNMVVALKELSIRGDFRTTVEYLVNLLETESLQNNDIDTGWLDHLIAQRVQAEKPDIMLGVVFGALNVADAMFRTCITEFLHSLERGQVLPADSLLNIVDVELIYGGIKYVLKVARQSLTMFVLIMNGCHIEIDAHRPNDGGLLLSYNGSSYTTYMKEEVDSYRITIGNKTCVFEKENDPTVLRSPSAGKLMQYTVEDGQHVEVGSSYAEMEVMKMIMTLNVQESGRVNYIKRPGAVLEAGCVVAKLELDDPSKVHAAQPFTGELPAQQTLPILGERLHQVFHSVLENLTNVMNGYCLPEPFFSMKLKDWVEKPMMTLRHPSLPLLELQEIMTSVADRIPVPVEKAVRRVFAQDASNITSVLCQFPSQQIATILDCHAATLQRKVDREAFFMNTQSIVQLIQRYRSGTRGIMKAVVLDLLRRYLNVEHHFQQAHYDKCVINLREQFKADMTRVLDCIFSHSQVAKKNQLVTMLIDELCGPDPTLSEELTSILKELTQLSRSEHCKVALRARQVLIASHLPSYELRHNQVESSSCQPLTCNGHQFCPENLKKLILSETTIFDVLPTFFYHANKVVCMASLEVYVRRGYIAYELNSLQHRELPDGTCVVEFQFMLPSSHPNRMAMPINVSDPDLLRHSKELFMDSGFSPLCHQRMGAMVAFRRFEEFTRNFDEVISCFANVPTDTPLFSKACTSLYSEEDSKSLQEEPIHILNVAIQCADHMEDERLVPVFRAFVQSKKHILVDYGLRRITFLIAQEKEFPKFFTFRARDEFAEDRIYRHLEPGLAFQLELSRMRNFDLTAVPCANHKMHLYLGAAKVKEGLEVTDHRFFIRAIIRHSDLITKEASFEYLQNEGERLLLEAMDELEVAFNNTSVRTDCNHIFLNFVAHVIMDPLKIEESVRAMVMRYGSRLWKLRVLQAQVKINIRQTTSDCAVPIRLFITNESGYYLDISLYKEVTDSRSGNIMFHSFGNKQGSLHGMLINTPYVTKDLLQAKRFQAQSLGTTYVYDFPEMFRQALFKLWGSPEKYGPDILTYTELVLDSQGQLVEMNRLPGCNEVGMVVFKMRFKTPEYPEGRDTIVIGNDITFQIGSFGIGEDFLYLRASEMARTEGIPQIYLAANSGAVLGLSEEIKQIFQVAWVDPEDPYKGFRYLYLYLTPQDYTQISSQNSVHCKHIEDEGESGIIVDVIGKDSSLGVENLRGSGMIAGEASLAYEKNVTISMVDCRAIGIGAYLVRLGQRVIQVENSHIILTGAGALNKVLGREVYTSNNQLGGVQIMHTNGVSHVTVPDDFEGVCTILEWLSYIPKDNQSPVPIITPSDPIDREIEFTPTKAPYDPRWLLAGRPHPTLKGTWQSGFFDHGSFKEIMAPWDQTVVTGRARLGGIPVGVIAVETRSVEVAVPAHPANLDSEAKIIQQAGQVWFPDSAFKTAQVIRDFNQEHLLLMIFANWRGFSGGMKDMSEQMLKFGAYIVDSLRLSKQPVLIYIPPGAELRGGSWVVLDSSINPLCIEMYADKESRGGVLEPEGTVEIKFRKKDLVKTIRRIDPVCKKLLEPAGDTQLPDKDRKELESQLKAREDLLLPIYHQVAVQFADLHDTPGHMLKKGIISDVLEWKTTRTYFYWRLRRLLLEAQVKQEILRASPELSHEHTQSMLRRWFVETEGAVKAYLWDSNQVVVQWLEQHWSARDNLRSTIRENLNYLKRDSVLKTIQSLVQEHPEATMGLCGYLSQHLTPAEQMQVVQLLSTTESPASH

IC50: 8.2 ± 4.1 nM
Compound: COc1cc(C(=O)N2CCC3(CC2)CC(=O)c2c(cnn2C(C)C)C3)cc(-c2ccc(C(=O)O)cc2)n1 [PF-05221304]
